Like-named read-outs stand apart in the source and are kept apart here.
Columns and labels:
hCA I = target: T1, hCA I (Homo sapiens, UniProt P00915); assay: hCA I hydratase activity inhibition assay (Wilbur-Anderson method); type: biochemical; settings: for Ki: Cheng-Prusoff equation
T1 construct: made in house
Experimental: (§1) Purification of hCA I and hCA II by affinity chromatography was performed as described in the previous work.
(§2) The Wilbur-Anderson method, as modified by Wilber et al., was used to calculate CA activity. With the help of a bromothymol blue indicator and a measurement of the passing time, the pH changes were calculated using this approach, which causes the hydration of CO2 to release H^+ ions. The equation (to-tc/tc), where to and tc are the times for pH change of the enzymatic and nonenzymatic processes, respectively, was used to compute the enzyme unit (EU).
(§3) While keeping the concentration of the substrate constant, IC50 values for the various compounds were computed. Enzyme activities in the absence of inhibitors in the medium were taken as 100% activity. By assessing the hydratase activity in the presence of various inhibitor concentrations, the activity % values of enzymes were calculated. Utilizing graphs of activity %-[I] for each inhibitor, the IC50 value was determined. The Cheng-Prusoff equation was used to derive inhibition constants using the nonlinear least squares method.

hCA II = target: T2, hCA II (Homo sapiens, UniProt P00918); assay: hCA II hydratase activity inhibition assay (Wilbur-Anderson method); type: biochemical; settings: for relative inhibitory activity hCA II versus hCA I: comparison of IC50 values on hCA I and hCA II
T2 construct: made in house
Experimental: as §1, §2, §3

[1] = hydratase activity, constant substrate concentration, read-out: IC50 hCA I

T1 sequence (P00915 whole entry): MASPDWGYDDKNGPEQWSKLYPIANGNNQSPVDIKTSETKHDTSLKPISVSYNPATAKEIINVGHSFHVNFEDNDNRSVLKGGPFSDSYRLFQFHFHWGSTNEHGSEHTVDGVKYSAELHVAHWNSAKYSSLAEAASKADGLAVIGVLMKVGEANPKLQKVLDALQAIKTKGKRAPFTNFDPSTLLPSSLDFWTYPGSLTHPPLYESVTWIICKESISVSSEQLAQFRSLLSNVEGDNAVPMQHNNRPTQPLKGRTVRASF

Row | Compound | IC50 (hCA I; [1]) | relative inhibitory activity hCA II versus hCA I (hCA II) | also measured
1 | CC(C)c1ccc(C=NNC(=O)c2ccc(-c3nc4ccccc4[nH]3)cc2)cc1 [Compound 3d, 4-(1H-benzimidazole-2-yl)-N’-(4-isopropylbenzylidene)benzohydrazide] | 1870 nM | – | –
2 | N-(1H-benzimidazole-2-yl)-N’-benzylidenebenzo hydrazide [Compound 3a] | – | more inhibitory activity on hCA II than hCA I | –
3 | CCOc1ccc(C=NNC(=O)c2ccc(-c3nc4ccccc4[nH]3)cc2)cc1 [Compound 3i, 4-(1H-benzimidazole-2-yl)-N’-(4-ethoxybenzylidene) benzohydrazide] | – | more inhibitory activity on hCA II than hCA I | –
4 | COc1ccc(C=NNC(=O)c2ccc(-c3nc4ccccc4[nH]3)cc2)cc1 [Compound 3k, 4-(1H-benzimidazole-2-yl)-N’-(4-methoxybenzylidene)benzohydrazide] | – | more inhibitory activity on hCA II than hCA I | –
5 | Cc1ccc(C=NNC(=O)c2ccc(-c3nc4ccccc4[nH]3)cc2)cc1 [Compound 3p, 4-(1H-benzimidazole-2-yl)-N’-(4-methylbenzyli-dene) benzohydrazide] | 1680 nM | – | type of inhibition, hCA I (hCA I): noncompetitive; Ki (hCA I): 299 ± 10 nM
6 | O=C(NN=Cc1ccc(OCc2ccccc2)cc1)c1ccc(-c2nc3ccccc3[nH]2)cc1 [Compound 3j, 4-(1H-benzimidazole-2-yl)-N’-(4-(benzyloxy)benzylidene)benzohydrazide] | 1950 nM | – | –
7 | O=C(NN=Cc1ccc(F)cc1)c1ccc(-c2nc3ccccc3[nH]2)cc1 [Compound 3l, 4-(1H-benzimidazole-2-yl)-N’-(4-fluorobenzylidene)benzohydrazide] | 2720 nM | fairly close inhibitory properties on hCA I and hCA II | IC50 (hCA II; hydratase activity, constant substrate concentration): 2740 nM
8 | O=C(NN=Cc1ccc([N+](=O)[O-])cc1)c1ccc(-c2nc3ccccc3[nH]2)cc1 [Compound 3n, 4-(1H-benzimidazole-2-yl)-N’-(4-nitrobenzylidene) benzohydrazide] | – | more inhibitory activity on hCA II than hCA I | Ki (hCA I): 956 nM
9 | CCN(CC)c1ccc(C=NNC(=O)c2ccc(-c3nc4ccccc4[nH]3)cc2)cc1 [Compound 3c, 4-(1H-benzimidazole-2-yl)-N’-(4-(diethylamino)benzylidene)benzohydrazide] | – | – | IC50 (hCA I): 2090 nM
